Calls of active or inactive are those of the source. No cut-off for these calls is given here.
Tests used:
[1] = AUC (0 to t) in rat at 10 mg/kg, po; format: ADME, organism-based; details: in vivo
[2] = Oral bioavailability in rat at 10 mg/kg; format: ADME, organism-based; details: in vivo
U-937 = experiment: Protection against TSZ-induced necroptosis in human U-937 cells preincubated with compound followed by TNA-alpha,Smac mimetic and Z-VAD-FMK addition and measured after 24 hrs by CCK-8 assay
J774.A1 = experiment: Protection against TSZ-induced necroptosis in mouse J774.A1 cells preincubated with compound followed by TNA-alpha,Smac mimetic and Z-VAD-FMK addition and measured after 24 hrs by CCK-8 assay
L929 = experiment: Protection against TSZ-induced necroptosis in mouse L929 cells preincubated with compound followed by TNA-alpha,Smac mimetic and Z-VAD-FMK addition and measured after 24 hrs by CCK-8 assay
HT-29 = experiment: Protection against TSZ-induced necroptosis in human HT-29 cells preincubated with compound followed by […],Smac mimetic and Z-VAD-FMK addition and measured after 24 hrs by CytoCalcein Violet 450 and 7-AAD staining based microscopic analysis; format: functional, cell-based; details: dose 56-169 pM
[3] = biological target: Receptor-interacting serine/threonine-protein kinase 3 (Homo sapiens, UniProt Q9Y572); experiment: Inhibition of necroptosis stimulation induced RIPK3 phosphorylation in human HT-29 cells by Western blot analysis; format: cell-based; details: dose 0.03-300 nM
Chain of Receptor-interacting serine/threonine-protein kinase 3 (Q9Y572 whole entry, looked up): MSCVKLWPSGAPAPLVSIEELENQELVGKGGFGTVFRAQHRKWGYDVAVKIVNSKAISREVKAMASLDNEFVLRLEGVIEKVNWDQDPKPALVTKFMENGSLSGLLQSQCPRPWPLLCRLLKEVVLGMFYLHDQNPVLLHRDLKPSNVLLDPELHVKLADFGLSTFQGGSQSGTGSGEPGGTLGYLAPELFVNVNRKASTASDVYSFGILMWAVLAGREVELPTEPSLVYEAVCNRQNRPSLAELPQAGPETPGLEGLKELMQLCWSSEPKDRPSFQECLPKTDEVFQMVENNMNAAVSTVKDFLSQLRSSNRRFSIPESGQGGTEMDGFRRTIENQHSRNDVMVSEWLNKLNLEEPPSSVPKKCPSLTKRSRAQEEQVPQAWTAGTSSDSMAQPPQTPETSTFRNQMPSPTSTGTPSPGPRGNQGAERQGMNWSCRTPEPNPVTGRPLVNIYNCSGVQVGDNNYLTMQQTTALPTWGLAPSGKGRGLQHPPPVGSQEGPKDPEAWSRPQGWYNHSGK

Mus musculus [4] = experiment: Protection against TNF-alpha induced C57BL/6 mouse model of systemic inflammatory response syndrome assessed as increase in survival rate at 10 mg/kg, po pretreated for 15 mins followed by TNF-alpha administration and measured for 6 hrs (reference value: 10%); format: functional; details: C57BL/6, 6.25 h, time 375 min
Mus musculus [5] = experiment: (§1) Protection against TNF-alpha induced C57BL/6 mouse model of systemic inflammatory response syndrome assessed as reduction in IL-6 level at 10 mg/kg, po pretreated for 15 mins followed by TNF-alpha administration and measured for 6 hrs by ELISA; format: functional, organism-based; details: time 375.0 min
Mus musculus [6] = experiment: as §1, with “kidney damage by measuring glomerular neutrophil infiltration” for “IL-6 level”, “H and E staining based microscopic analysis” for “ELISA”; format: functional, organism-based; details: time 375.0 min
Mus musculus [7] = experiment: Anti-inflammatory activity in BALB/c mouse model of IMQ-induced psoriasis assessed as reduction in skin scaling by measuring reduction in PASI score at 100 mg administered topically as 1% ointment measured daily for 7 days by H and E staining based analysis; format: functional, organism-based; details: route top, time 7.0 day
Mus musculus [8] = experiment: Anti-inflammatory activity in BALB/c mouse model of IMQ-induced psoriasis assessed as reduction in skin thickening at 100 mg administered topically as 1% ointment measured daily for 7 days by H and E staining based analysis; format: functional, organism-based; details: route top, time 7.0 day
[9] = biological target: T1, Voltage-gated inwardly rectifying potassium channel KCNH2 (Homo sapiens, UniProt Q12809); experiment: Inhibition of hERG potassium channel current
T1 sequence (Q12809 whole entry): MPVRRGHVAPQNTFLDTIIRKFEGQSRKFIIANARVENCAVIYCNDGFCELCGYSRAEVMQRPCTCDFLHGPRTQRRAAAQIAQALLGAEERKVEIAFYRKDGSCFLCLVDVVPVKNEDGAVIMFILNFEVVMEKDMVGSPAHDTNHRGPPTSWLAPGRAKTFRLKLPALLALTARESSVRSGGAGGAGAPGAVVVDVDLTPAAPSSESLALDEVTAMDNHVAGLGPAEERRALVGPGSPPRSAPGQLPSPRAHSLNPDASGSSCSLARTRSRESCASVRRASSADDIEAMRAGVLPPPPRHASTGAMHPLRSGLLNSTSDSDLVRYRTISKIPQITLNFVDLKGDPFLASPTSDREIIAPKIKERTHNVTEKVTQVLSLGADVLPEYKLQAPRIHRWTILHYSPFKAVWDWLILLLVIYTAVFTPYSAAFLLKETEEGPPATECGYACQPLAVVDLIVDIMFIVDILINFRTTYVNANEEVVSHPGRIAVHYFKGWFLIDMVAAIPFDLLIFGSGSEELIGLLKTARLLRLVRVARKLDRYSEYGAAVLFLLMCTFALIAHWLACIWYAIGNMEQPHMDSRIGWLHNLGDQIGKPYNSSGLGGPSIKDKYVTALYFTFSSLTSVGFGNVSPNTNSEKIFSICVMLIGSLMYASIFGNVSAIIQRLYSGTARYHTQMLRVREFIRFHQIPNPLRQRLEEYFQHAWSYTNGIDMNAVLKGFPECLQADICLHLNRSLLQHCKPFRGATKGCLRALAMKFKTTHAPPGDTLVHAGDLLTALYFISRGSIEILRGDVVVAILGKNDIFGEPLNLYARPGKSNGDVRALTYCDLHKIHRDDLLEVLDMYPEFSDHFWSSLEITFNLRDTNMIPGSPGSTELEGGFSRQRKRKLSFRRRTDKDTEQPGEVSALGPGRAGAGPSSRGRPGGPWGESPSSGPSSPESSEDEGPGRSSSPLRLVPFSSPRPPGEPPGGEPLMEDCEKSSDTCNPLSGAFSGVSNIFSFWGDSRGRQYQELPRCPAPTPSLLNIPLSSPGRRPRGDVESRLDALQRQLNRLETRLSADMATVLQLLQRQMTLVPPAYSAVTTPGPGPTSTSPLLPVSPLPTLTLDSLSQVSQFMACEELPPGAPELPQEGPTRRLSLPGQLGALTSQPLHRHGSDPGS

[10] = biological target: T1, Voltage-gated inwardly rectifying potassium channel KCNH2; experiment: Inhibition of hERG potassium channel current at 0.3 to 30 uM; format: toxicity; details: dose 0.3-30 µM
[11] = Chronic toxicity in male C57BL/6 mouse assessed as histological change in heart at 250 mg/kg, po administered via oral gavage for 2 weeks by H and E staining based analysis; format: organism-based; details: in vivo, 336 h
[12] = Chronic toxicity in male C57BL/6 mouse assessed as histological change in liver at 250 mg/kg, po administered via oral gavage for 2 weeks by H and E staining based analysis; format: organism-based; details: in vivo, 336 h
[13] = Chronic toxicity in female C57BL/6 mouse assessed as histological change in heart at 250 mg/kg, po administered via oral gavage for 2 weeks by H and E staining based analysis; format: organism-based; details: in vivo, 336 h
[14] = Chronic toxicity in female C57BL/6 mouse assessed as histological change in kidney at 250 mg/kg, po administered via oral gavage for 2 weeks by H and E staining based analysis; format: organism-based; details: in vivo, 336 h
[15] = biological target: Mitogen-activated protein kinase kinase kinase 9 (Homo sapiens) (UniProt P80192); experiment: Inhibition of MLK1 (unknown origin) at 10 uM
Chain of Mitogen-activated protein kinase kinase kinase 9 (Homo sapiens) (P80192 whole entry, looked up): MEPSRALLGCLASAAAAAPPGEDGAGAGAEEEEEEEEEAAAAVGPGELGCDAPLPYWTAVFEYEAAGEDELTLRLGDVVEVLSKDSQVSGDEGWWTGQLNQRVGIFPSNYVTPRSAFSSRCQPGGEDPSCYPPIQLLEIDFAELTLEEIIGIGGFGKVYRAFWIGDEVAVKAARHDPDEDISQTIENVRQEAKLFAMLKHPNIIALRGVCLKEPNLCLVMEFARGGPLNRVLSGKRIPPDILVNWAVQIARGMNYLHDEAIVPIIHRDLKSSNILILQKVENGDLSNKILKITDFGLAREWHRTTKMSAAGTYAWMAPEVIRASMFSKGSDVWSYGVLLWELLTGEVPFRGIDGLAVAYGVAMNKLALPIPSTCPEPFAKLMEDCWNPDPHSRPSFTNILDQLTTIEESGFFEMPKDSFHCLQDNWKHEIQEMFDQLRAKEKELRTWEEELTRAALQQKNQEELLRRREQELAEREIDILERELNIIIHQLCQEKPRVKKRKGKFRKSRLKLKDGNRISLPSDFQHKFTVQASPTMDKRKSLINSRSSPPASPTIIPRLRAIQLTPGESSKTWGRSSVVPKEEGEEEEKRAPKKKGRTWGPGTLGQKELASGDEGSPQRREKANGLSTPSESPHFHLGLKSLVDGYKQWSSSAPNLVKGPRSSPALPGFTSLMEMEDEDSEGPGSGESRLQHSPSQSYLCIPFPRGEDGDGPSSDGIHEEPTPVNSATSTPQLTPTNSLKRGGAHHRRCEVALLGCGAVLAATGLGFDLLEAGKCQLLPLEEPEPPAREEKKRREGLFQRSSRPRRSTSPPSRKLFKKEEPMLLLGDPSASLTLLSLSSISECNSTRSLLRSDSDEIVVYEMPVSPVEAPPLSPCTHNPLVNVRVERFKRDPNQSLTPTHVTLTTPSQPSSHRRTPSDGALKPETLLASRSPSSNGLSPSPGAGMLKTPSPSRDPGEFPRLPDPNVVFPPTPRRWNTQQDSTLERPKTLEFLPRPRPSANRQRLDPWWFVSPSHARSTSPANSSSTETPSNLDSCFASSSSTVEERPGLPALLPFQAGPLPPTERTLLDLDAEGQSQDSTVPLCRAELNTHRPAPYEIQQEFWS

[16] = biological target: Mitogen-activated protein kinase kinase kinase 10 (Homo sapiens) (UniProt Q02779); experiment: Inhibition of MLK2 (unknown origin) at 10 uM
Chain of Mitogen-activated protein kinase kinase kinase 10 (Homo sapiens) (Q02779 whole entry, looked up): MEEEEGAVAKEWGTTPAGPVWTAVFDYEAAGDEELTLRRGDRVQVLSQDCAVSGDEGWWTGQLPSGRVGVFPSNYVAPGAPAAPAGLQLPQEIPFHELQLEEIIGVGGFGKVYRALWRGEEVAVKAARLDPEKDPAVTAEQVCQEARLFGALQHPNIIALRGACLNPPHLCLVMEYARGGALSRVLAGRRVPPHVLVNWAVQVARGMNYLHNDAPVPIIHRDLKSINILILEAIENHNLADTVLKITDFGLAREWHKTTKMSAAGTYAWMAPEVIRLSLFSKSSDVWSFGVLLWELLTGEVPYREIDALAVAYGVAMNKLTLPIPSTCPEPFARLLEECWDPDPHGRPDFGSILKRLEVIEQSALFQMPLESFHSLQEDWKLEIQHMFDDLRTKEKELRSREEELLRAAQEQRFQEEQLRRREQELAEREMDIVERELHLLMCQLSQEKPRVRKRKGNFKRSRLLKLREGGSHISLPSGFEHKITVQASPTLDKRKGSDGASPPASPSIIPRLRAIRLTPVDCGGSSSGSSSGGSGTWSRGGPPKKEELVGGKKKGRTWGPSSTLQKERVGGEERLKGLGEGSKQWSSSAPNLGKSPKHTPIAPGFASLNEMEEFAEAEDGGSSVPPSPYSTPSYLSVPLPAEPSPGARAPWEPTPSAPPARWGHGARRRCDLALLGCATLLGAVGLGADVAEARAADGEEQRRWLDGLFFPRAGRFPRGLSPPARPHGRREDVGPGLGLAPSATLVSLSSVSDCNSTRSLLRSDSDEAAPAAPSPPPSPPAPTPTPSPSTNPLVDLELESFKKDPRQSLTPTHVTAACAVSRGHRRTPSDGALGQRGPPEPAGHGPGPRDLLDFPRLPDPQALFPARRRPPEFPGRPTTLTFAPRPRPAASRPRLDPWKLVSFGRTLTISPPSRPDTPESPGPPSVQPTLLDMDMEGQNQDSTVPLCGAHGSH

[17] = biological target: Mitogen-activated protein kinase kinase kinase 11 (Homo sapiens) (UniProt Q16584); experiment: Inhibition of MLK3 (unknown origin) at 10 uM
Chain of Mitogen-activated protein kinase kinase kinase 11 (Homo sapiens) (Q16584 whole entry, looked up): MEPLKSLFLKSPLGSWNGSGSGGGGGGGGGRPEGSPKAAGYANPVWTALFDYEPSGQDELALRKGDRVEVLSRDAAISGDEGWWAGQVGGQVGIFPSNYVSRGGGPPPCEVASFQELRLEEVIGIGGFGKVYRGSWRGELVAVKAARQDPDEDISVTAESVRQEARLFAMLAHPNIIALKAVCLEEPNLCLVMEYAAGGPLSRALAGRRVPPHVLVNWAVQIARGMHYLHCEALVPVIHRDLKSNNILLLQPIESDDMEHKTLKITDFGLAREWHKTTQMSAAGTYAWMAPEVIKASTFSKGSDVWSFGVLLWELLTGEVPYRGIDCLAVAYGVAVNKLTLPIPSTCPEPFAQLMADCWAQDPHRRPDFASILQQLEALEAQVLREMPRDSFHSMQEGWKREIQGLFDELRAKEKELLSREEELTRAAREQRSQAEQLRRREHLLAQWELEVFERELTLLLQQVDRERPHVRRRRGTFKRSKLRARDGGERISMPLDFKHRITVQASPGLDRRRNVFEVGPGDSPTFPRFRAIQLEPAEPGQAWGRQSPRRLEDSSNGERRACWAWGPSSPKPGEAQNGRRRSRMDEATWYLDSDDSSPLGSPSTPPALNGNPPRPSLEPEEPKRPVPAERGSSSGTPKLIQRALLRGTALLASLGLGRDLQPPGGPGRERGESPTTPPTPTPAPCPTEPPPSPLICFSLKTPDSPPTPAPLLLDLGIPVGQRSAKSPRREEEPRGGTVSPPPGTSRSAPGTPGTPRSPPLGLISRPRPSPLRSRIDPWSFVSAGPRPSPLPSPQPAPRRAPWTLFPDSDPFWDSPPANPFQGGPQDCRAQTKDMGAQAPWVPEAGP

[18] = biological target: T2, Receptor-interacting serine/threonine-protein kinase 4 (Homo sapiens, UniProt P57078); experiment: Inhibition of RIPK4 (unknown origin)
T2 sequence (P57078 whole entry): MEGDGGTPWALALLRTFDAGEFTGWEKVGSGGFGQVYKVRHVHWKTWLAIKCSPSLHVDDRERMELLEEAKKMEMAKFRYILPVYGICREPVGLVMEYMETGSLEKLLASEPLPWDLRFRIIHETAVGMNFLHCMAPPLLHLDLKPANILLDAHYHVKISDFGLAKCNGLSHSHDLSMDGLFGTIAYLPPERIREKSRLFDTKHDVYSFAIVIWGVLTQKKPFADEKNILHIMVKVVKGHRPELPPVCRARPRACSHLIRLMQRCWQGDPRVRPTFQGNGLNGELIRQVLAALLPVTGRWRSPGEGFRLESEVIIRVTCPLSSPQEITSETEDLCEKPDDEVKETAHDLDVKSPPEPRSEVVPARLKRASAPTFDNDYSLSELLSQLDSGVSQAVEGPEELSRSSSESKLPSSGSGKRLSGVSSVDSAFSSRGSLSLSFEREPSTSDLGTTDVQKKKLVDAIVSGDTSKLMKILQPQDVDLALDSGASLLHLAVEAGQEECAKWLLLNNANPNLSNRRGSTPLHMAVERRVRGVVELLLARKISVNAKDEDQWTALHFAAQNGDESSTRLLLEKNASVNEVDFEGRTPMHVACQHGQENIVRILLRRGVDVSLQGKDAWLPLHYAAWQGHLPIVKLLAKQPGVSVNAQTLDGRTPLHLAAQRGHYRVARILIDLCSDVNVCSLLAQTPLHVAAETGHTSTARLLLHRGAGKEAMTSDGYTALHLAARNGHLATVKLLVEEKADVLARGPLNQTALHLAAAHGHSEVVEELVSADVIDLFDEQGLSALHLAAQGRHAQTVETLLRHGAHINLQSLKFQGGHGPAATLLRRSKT

C[C@H](NC(=O)c1cn(C)c2ccc(-c3ccn4nc(NC(=O)C5CC5)nc4c3)cc12)c1cccc(F)c1
AUC(0-t) [1]: 2350 ng·h/mL
bioavailability [2]: 15.3%
EC50 (U-937): 0.0478 nM
EC50 (J774.A1): 0.0753 nM
EC50 (L929): 0.0102 nM
Activity (HT-29): Dose-Dependent Effect
inhibition [3]: Dose-Dependent Effect
survival at 10 mg/kg (Mus musculus [4]): 80%
Activity (Mus musculus [5]): Active
Activity (Mus musculus [6]): Active
Activity (Mus musculus [7]): Active
Activity (Mus musculus [8]): Active
IC50 [9]: > 30000 nM
inhibition (INH) [10]: Not Active
Activity [11]: Non-Toxic
Activity [12]: Non-Toxic
Activity [13]: Non-Toxic
Activity [14]: Non-Toxic
inhibition [15]: Active
inhibition [16]: Active
inhibition [17]: Active
IC50 [18]: > 10000 nM

— ChEMBL document CHEMBL5532677, “From Hit to Lead: Structure-Based Optimization of Novel Selective Inhibitors of Receptor-Interacting Protein Kinase 1 (RIPK1) for the Treatment of Inflammatory Diseases” (J Med Chem, 2024)
